Laboratory results from publication PMC9954146, “Anti-Leukaemic Activity of Rilpivirine Is Mediated by Aurora A Kinase Inhibition” (Cancers, 2023).

Assays:
Assay in all cases: Kinase panel
Format in all cases: biochemical
[1] = biological target: T1, ACK1(h) (Homo sapiens, UniProt Q07912); settings: read-out: % Residual Activity
T1 construct: purchased Eurofins (KinaseProfiler)
Procedure: (§1) Kinome-wide selectivity of rilpivirine was measured using the kinase screening and profiling service of Eurofins Scientific (Le bois l’Evêque 86600. Celle-Lévescault, France) and Ki values were determined using radioisotope-based assays by Reaction Biology Corporation (Malvern, PA, USA). The experimental details of Eurofin Scientific and Reaction Biology services for relevant assays are available at https://www.eurofinsdiscoveryservices.com/services/in-Vitro-assays/kinases/kinase-profiler (accessed on 7 July 2021) and https://www.reactionbiology.com (accessed on 7 July 2021), respectively. Ki values were estimated from the corresponding IC50 values using the Cheng–Prusoff equation [21] and the Km (ATP) of individual kinase was used for IC50 determination.

[2] = biological target: T2, ACTR2(h) (Homo sapiens, UniProt P27037); settings: read-out: % Residual Activity
T2 construct: purchased Eurofins (KinaseProfiler)
T2 sequence (P27037 20-513): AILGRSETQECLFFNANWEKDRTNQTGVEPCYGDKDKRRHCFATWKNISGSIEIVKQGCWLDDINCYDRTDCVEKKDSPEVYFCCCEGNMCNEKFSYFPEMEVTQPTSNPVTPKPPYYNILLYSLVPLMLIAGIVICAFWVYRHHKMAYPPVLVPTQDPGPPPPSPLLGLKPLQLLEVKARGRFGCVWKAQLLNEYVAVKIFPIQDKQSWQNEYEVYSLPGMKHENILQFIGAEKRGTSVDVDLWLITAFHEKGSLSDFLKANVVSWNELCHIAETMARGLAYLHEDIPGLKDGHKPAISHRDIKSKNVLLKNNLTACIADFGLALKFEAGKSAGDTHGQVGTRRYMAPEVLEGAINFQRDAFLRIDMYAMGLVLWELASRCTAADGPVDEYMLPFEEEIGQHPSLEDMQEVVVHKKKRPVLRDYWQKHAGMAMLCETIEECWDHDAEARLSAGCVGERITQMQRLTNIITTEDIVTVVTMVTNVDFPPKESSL
Procedure: as §1

[3] = biological target: T3, ATM(h) (Homo sapiens, UniProt Q13315); settings: read-out: % Residual Activity
T3 construct: purchased Eurofins (KinaseProfiler)
Procedure: as §1

[4] = biological target: T4, ATR/ATRIP(h) (Homo sapiens, UniProt Q13535); settings: read-out: % Residual Activity
T4 construct: purchased Eurofins (KinaseProfiler)
Procedure: as §1

[5] = biological target: T5, Aurora-B(h) (Homo sapiens, UniProt Q96GD4); settings: read-out: % Residual Activity
T5 construct: purchased Eurofins (KinaseProfiler)
Procedure: as §1

[6] = biological target: T6, Blk(h) (Homo sapiens, UniProt P51451); settings: read-out: % Residual Activity
T6 construct: purchased Eurofins (KinaseProfiler)
T6 sequence (P51451 whole entry): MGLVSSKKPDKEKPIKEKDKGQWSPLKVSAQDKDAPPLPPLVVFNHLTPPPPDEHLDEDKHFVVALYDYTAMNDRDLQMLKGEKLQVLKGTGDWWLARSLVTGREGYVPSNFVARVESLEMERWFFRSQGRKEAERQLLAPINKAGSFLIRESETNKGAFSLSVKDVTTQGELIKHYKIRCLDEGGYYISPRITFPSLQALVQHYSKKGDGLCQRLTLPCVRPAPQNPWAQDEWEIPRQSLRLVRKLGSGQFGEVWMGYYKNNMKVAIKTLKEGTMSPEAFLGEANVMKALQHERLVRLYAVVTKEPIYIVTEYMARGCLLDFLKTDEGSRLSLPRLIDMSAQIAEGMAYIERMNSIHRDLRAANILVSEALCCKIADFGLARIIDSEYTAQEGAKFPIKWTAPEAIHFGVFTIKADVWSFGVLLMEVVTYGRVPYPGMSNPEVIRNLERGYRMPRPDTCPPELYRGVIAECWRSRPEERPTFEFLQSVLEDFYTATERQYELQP
Procedure: as §1

[7] = biological target: T7, CK1γ2(h) (Homo sapiens, UniProt P78368); settings: read-out: % Residual Activity
T7 construct: purchased Eurofins (KinaseProfiler)
T7 sequence (P78368 whole entry): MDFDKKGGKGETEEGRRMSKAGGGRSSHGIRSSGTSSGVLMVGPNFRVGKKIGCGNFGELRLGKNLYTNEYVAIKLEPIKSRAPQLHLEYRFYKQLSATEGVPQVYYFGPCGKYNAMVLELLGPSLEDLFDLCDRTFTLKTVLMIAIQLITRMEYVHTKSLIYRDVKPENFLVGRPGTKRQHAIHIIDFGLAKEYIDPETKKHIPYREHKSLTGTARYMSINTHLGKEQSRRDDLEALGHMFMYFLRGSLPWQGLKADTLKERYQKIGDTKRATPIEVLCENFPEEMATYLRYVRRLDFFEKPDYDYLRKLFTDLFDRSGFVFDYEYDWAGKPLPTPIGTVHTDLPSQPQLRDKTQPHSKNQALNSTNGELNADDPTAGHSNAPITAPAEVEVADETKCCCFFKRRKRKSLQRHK
Procedure: as §1

[8] = biological target: T8, CaMKIIβ(h) (Homo sapiens, UniProt Q13554); settings: read-out: % Residual Activity
T8 construct: purchased Eurofins (KinaseProfiler)
Procedure: as §1

[9] = biological target: T9, DDR1(h) (Homo sapiens, UniProt Q08345); settings: read-out: % Residual Activity
T9 construct: purchased Eurofins (KinaseProfiler)
Procedure: as §1

[10] = biological target: T10, DYRK3(h) (Homo sapiens, UniProt O43781); settings: read-out: % Residual Activity
T10 construct: purchased Eurofins (KinaseProfiler)
Procedure: as §1

[11] = biological target: T11, EphA2(h) (Homo sapiens, UniProt P29317); settings: read-out: % Residual Activity
T11 construct: purchased Eurofins (KinaseProfiler)
T11 sequence (P29317 24-976): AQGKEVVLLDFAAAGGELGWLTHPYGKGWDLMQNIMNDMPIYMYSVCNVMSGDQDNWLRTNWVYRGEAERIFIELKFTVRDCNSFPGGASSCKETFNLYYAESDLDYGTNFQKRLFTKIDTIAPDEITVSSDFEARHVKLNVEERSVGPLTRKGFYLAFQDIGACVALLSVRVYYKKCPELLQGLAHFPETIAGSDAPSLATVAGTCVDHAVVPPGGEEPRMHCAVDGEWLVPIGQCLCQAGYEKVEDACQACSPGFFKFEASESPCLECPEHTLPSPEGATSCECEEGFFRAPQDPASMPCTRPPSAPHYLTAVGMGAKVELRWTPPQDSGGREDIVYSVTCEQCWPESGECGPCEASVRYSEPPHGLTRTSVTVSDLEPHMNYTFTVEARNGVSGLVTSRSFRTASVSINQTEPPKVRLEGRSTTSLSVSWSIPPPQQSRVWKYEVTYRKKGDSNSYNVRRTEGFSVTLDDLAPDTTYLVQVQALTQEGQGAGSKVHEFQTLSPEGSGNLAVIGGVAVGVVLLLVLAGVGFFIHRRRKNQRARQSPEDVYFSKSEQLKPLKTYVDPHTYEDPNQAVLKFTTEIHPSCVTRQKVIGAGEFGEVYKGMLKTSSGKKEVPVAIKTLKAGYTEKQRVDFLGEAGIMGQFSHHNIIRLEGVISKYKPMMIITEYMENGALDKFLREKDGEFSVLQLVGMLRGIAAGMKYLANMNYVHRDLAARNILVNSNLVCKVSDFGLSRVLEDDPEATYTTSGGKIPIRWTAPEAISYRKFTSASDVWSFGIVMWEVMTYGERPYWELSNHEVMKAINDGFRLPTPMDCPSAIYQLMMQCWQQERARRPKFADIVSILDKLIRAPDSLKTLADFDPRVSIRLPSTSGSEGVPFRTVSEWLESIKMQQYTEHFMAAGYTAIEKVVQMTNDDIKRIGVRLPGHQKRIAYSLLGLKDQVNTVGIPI
Procedure: as §1

[12] = biological target: T12, GRK1(h) (Homo sapiens, UniProt Q15835); settings: read-out: % Residual Activity
T12 construct: purchased Eurofins (KinaseProfiler)
Procedure: as §1

[13] = biological target: T13, GRK7(h) (Homo sapiens, UniProt Q8WTQ7); settings: read-out: % Residual Activity
T13 construct: purchased Eurofins (KinaseProfiler)
Procedure: as §1

[14] = biological target: T14, GSK3α(h) (Homo sapiens, UniProt P49840); settings: read-out: % Residual Activity
T14 construct: purchased Eurofins (KinaseProfiler)
Procedure: as §1

[15] = biological target: T15, HIPK2(h) (Homo sapiens, UniProt Q9H2X6); settings: read-out: % Residual Activity
T15 construct: purchased Eurofins (KinaseProfiler)
T15 sequence (Q9H2X6 whole entry): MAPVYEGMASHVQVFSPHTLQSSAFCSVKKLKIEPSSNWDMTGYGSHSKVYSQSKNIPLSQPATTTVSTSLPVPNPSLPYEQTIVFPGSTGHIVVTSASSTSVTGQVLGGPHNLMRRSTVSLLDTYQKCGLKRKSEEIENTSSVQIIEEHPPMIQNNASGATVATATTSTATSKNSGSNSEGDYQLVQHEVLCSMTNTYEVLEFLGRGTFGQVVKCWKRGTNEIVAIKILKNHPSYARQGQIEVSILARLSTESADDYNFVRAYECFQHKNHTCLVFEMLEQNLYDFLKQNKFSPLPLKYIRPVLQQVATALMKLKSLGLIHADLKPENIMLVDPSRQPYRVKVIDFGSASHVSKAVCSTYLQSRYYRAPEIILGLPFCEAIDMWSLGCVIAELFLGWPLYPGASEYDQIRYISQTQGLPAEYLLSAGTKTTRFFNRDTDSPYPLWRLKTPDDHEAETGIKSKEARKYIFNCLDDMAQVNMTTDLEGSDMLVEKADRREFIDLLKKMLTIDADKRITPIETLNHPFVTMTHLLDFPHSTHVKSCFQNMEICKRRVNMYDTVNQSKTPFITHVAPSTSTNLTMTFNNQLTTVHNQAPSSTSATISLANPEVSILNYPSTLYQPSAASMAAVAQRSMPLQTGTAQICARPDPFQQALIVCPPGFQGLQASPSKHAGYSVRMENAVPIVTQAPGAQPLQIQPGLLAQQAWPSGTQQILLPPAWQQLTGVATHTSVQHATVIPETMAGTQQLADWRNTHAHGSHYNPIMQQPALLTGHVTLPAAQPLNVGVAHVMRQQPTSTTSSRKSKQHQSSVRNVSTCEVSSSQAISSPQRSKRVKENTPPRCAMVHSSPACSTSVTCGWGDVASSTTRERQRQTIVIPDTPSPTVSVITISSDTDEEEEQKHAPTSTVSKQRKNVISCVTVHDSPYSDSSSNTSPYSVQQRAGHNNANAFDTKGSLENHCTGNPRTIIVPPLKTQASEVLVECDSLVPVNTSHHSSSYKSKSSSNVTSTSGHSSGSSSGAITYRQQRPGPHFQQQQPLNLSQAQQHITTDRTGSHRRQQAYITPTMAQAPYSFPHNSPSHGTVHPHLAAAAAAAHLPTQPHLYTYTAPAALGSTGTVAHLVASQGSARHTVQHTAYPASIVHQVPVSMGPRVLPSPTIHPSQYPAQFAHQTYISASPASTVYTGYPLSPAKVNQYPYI
Procedure: as §1

[16] = biological target: T16, IGF-1R(h), activated (Homo sapiens, UniProt P08069); settings: read-out: % Residual Activity
T16 construct: purchased Eurofins (KinaseProfiler)
Procedure: as §1

[17] = biological target: T17, IKKε(h) (Homo sapiens, UniProt Q14164); settings: read-out: % Residual Activity
T17 construct: purchased Eurofins (KinaseProfiler)
Procedure: as §1

[18] = biological target: T18, IRE1(h) (Homo sapiens, UniProt O75460); settings: read-out: % Residual Activity
T18 construct: purchased Eurofins (KinaseProfiler)
Procedure: as §1

[19] = biological target: T19, JAK3(h) (Homo sapiens, UniProt P52333); settings: read-out: % Residual Activity
T19 construct: purchased Eurofins (KinaseProfiler)
Procedure: as §1

[20] = biological target: T20, MARK1(h) (Homo sapiens, UniProt Q9P0L2); settings: read-out: % Residual Activity
T20 construct: purchased Eurofins (KinaseProfiler)
Procedure: as §1

[21] = biological target: T21, MEK1(h) (Homo sapiens, UniProt Q02750); settings: read-out: % Residual Activity
T21 construct: purchased Eurofins (KinaseProfiler)
Procedure: as §1

[22] = biological target: T22, MEK2(h) (Homo sapiens, UniProt P36507); settings: read-out: % Residual Activity
T22 construct: purchased Eurofins (KinaseProfiler)
Procedure: as §1

[23] = biological target: T23, MEKK3(h) (Homo sapiens, UniProt Q99759); settings: read-out: % Residual Activity
T23 construct: purchased Eurofins (KinaseProfiler)
Procedure: as §1

[24] = biological target: T24, NDR2(h) (Homo sapiens, UniProt Q9Y2H1); settings: read-out: % Residual Activity
T24 construct: purchased Eurofins (KinaseProfiler)
Procedure: as §1

[25] = biological target: T25, NEK4(h) (Homo sapiens, UniProt P51957); settings: read-out: % Residual Activity
T25 construct: purchased Eurofins (KinaseProfiler)
Procedure: as §1

[26] = biological target: T26, NUAK2(h) (Homo sapiens, UniProt Q9H093); settings: read-out: % Residual Activity
T26 construct: purchased Eurofins (KinaseProfiler)
Procedure: as §1

[27] = biological target: PI3 Kinase (p110a/p65a)(h) (Homo sapiens, UniProt P42336); settings: read-out: % Residual Activity
Procedure: as §1

[28] = biological target: T27, PKBβ(h) (Homo sapiens, UniProt P31751); settings: read-out: % Residual Activity
T27 construct: purchased Eurofins (KinaseProfiler)
Procedure: as §1

[29] = biological target: T28, PKCβII(h) (Homo sapiens, UniProt P05771); settings: read-out: % Residual Activity
T28 construct: purchased Eurofins (KinaseProfiler)
Procedure: as §1

[30] = biological target: T29, PKCθ(h) (Homo sapiens, UniProt Q04759); settings: read-out: % Residual Activity
T29 construct: purchased Eurofins (KinaseProfiler)
Procedure: as §1

[31] = biological target: T30, PRAK(h) (Homo sapiens, UniProt Q8IW41); settings: read-out: % Residual Activity
T30 construct: purchased Eurofins (KinaseProfiler)
Procedure: as §1

[32] = biological target: T31, Pim-1(h) (Homo sapiens, UniProt P11309)
T31 construct: purchased Eurofins (KinaseProfiler)
T31 sequence (P11309 whole entry): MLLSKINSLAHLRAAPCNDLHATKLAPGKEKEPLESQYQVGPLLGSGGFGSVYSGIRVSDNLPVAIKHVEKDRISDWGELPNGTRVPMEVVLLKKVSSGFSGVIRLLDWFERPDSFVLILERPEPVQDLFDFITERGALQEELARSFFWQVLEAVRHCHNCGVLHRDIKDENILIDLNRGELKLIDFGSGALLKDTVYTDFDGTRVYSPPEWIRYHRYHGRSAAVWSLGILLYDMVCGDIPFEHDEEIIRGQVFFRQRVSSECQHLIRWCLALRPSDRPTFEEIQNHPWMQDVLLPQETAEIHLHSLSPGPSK
Procedure: as §1

[33] = biological target: T32, Ret(V804M)(h) (Homo sapiens, UniProt P07949, V804M); settings: read-out: % Residual Activity
T32 construct: purchased Eurofins (KinaseProfiler)
T32 sequence (P07949 29-1114 V804M): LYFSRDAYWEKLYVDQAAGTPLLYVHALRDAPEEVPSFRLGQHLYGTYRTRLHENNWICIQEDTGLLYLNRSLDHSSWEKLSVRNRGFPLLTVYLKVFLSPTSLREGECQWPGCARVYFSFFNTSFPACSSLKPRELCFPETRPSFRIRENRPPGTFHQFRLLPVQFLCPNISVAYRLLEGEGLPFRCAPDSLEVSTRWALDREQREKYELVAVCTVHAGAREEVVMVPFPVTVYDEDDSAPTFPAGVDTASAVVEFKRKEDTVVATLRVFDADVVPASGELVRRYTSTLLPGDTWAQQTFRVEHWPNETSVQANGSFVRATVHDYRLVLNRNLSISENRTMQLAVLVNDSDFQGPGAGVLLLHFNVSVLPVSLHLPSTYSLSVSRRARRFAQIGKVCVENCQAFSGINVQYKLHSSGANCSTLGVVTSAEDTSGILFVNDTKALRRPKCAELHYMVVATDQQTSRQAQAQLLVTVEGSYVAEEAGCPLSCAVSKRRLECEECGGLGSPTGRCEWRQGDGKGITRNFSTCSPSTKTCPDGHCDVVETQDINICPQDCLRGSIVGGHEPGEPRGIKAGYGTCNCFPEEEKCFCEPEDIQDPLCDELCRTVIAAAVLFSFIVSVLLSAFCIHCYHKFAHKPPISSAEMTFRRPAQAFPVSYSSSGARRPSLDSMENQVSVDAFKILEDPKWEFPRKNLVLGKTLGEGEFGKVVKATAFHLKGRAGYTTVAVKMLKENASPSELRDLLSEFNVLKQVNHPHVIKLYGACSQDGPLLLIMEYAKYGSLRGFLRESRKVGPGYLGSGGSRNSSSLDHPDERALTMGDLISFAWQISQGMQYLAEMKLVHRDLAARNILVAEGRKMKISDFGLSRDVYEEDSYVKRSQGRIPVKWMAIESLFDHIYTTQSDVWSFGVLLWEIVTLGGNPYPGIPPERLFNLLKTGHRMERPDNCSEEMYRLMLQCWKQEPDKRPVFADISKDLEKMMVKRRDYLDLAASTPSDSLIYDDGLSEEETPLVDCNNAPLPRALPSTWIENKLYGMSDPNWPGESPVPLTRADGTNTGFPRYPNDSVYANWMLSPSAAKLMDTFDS
Procedure: as §1

[34] = biological target: T33, Ron(h) (Homo sapiens, UniProt Q04912); settings: read-out: % Residual Activity
T33 construct: purchased Eurofins (KinaseProfiler)
Procedure: as §1

[35] = biological target: T34, Rsk1(r) (Rattus norvegicus, UniProt Q63531); settings: read-out: % Residual Activity
T34 construct: purchased Eurofins (KinaseProfiler)
Procedure: as §1

[36] = biological target: T35, Tie2 (h) (Homo sapiens, UniProt Q02763); settings: read-out: % Residual Activity
T35 construct: purchased Eurofins (KinaseProfiler)
Procedure: as §1

[37] = biological target: T36, ULK2(h) (Homo sapiens, UniProt Q8IYT8); settings: read-out: % Residual Activity
T36 construct: purchased Eurofins (KinaseProfiler)
Procedure: as §1

[38] = biological target: T37, cKit(V560G)(h) (Homo sapiens, UniProt P10721, V560G); settings: read-out: % Residual Activity
T37 construct: purchased Eurofins (KinaseProfiler)
Procedure: as §1

Cc1cc(/C=C/C#N)cc(C)c1Nc1ccnc(Nc2ccc(C#N)cc2)n1 [rilpivirine, (E)-4-((4-((4-(2-cyanoethenyl)-2,6-dimethylphenyl)amino)pyrimidin-2-yl)amino)benzonitrile]
remaining activity at 1 µM [1]: 97% | remaining activity at 1 µM [2]: 91% | remaining activity at 1 µM [3]: 111% | remaining activity at 1 µM [4]: 117% | remaining activity at 1 µM [5]: 85% | remaining activity at 1 µM [6]: 73% | remaining activity at 1 µM [7]: 90% | remaining activity at 1 µM [8]: 69% | remaining activity at 1 µM [9]: 46% | remaining activity at 1 µM [10]: 84% | remaining activity at 1 µM [11]: 72% | remaining activity at 1 µM [12]: 103% | remaining activity at 1 µM [13]: 70% | remaining activity at 1 µM [14]: 80% | remaining activity at 1 µM [15]: 85% | remaining activity at 1 µM [16]: 99% | remaining activity at 1 µM [17]: 82% | remaining activity at 1 µM [18]: 100% | remaining activity at 1 µM [19]: 68% | remaining activity at 1 µM [20]: 82% | remaining activity at 1 µM [21]: 101% | remaining activity at 1 µM [22]: 92% | remaining activity at 1 µM [23]: 72% | remaining activity at 1 µM [24]: 100% | remaining activity at 1 µM [25]: 97% | remaining activity at 1 µM [26]: 101% | remaining activity at 1 µM [27]: 93% | remaining activity at 1 µM [28]: 90% | remaining activity at 1 µM [29]: 94% | remaining activity at 1 µM [30]: 66% | remaining activity at 1 µM [31]: 100% | remaining activity at 1 µM ([32]; 1 μM, read-out: % Residual Activity): 22% | inhibition at 1 µM ([32]; PIM1, 1 μM, read-out: inhibitory activity): > 70% | remaining activity at 1 µM [33]: 92% | remaining activity at 1 µM [34]: 85% | remaining activity at 1 µM [35]: 90% | remaining activity at 1 µM [36]: 93% | remaining activity at 1 µM [37]: 90% | remaining activity at 1 µM [38]: 74%
